Experimental data as given in patent US20180030108A1, “NOVEL VOLTAGE-DEPENDENT ION CHANNEL FUSIONS AND METHOD OF USE THEREOF” (UNIVERSITE DE BORDEAUX, priority 2015, published 2018).
Values belong to the compound of their own block, whether it stands above or below them.

Key:
YFP-hTRPV3-rLuc = YFP-hTRPV3-rLuc (Homo sapiens, UniProt Q8NET8); conditions: 33° C., kinetic
[1] = molecular target: TRPV1-Luc (human; Renilla) (UniProt Q8NER1); assay: intermolecular BRET kinetics in living HEK293T cells co-expressing TRPV1-Luc and YFP-CaM, after capsaicin injection
Chain of TRPV1-Luc (human; Renilla) (Q8NER1 whole entry): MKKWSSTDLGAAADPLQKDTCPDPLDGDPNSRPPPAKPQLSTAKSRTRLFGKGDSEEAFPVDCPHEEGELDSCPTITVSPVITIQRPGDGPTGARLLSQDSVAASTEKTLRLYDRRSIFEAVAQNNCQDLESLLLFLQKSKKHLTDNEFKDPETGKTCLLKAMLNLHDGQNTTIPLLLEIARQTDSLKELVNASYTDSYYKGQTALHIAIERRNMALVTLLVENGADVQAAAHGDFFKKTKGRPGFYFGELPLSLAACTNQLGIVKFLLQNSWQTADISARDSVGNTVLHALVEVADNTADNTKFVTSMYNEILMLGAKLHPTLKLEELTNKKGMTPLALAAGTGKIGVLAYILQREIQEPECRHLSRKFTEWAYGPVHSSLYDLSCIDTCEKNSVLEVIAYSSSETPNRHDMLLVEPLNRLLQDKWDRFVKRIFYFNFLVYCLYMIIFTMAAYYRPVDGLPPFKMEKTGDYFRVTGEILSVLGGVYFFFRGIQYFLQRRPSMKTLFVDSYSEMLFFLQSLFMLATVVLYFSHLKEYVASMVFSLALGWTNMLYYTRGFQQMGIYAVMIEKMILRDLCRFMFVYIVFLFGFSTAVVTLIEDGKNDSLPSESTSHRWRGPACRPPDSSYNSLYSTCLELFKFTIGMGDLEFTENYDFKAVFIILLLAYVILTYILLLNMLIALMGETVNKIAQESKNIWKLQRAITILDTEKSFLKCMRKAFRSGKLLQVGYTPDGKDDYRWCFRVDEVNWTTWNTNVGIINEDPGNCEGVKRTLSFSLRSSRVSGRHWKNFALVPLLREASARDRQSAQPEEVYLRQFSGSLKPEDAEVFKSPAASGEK

TRPV4-Luc/YFP-CaM = molecular target: T1, TRPV4-Luc/YFP-CaM (Homo sapiens, UniProt Q9HBA0); assay: Intermolecular TRPV4-Luc/YFP-CaM BRET test in HEK293T cells; assay type: cell-based
T1 construct: expressed in transfected cells; host or cells: HEK293T
T1 sequence (Q9HBA0 whole entry): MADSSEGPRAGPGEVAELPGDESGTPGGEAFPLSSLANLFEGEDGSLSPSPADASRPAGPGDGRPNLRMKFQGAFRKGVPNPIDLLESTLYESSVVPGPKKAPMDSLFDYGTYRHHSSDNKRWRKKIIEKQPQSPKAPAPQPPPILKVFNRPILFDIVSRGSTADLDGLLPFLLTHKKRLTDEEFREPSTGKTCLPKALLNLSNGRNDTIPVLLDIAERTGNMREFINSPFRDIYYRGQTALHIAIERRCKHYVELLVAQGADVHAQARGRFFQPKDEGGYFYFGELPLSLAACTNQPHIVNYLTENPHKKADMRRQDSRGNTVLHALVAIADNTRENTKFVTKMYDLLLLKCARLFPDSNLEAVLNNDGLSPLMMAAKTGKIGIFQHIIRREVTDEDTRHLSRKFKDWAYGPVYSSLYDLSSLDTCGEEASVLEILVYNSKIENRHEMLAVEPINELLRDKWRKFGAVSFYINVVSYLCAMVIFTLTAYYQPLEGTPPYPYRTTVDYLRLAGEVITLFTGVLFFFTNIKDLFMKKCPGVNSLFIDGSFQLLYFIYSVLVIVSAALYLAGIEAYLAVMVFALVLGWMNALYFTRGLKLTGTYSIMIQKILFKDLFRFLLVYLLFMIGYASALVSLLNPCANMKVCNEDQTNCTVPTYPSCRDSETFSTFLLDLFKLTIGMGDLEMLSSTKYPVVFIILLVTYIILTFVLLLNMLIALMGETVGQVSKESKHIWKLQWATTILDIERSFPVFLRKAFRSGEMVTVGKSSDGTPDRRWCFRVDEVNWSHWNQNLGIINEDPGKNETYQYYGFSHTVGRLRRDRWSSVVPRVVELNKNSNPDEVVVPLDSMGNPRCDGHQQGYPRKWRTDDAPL
Experimental: An intermolecular TRPV4 BRET probe where the RLuc was fused to the TRPV4 in C-terminal and YFP was fused to the N-terminus part of Calmodulin. Kinetic (FIG. 14A) and dose response curve (FIG. 14B) of the effect of the TRPV4 agonist GSK1016790A on HEK293T cells expressing the TRPV4-Luc/YFP-CaM constructs were obtained. In FIG. 14A, cells were activated with 1 μM of agonist at the time indicated with an arrow. In FIG. 14B, the test was done in presence (square) or absence of the TRPV inhibitor Ruthenium Red (10 μM).

YFP-hTRPV1-rLuc [2] = molecular target: T2, YFP-hTRPV1-rLuc (Homo sapiens, UniProt Q8NER1); assay: Intramolecular YFP-hTRPV1-rLuc BRET probe in HEK293T cells; assay type: cell-based; conditions: for effect on the CAPS dose response curve: cells pre-incubated with 1 μM inhibitor (FIG. 10); for effect on the capsaicin dose-response curve: pre-incubated 5 minutes before readings, 37° C. (FIG. 6)
T2 construct: expressed in transfected cells; host or cells: HEK293T
T2 sequence (Q8NER1 whole entry): as the sequence (Q8NER1 whole entry) above

[3] = system: HEK293T cells transfected with an empty vector; assay: Intracellular calcium by Fura 2-AM, HEK293T cells transfected with an empty vector; assay type: cell-based, human; conditions: 1 μM capsaicin, 37° C.
TRPV1-Luc/YFP-CaM = TRPV1-Luc/YFP-CaM (Homo sapiens, UniProt Q8NER1); conditions: for effect on the CAPS dose response curve: cells pre-incubated with 1 μM inhibitor (FIG. 10)
Chain of TRPV1-Luc/YFP-CaM (Q8NER1 whole entry): as above

YFP-hTRPV1-rLuc [4] = molecular target: T2, YFP-hTRPV1-rLuc; assay: Intracellular calcium by Fura 2-AM, HEK293T cells expressing YFP-hTRPV1-rLuc; assay type: cell-based; conditions: 1 μM capsaicin, 37° C.
wild-type TRPV1 = molecular target: T3, wild-type TRPV1 (Homo sapiens, UniProt Q8NER1); assay: Intracellular calcium by Fura 2-AM, HEK293T cells expressing wild-type TRPV1; assay type: cell-based; conditions: 1 μM capsaicin, 37° C.
T3 construct: expressed in transfected cells; host or cells: HEK293T
T3 sequence (Q8NER1 whole entry): as above

[5] = HEK293T cells pre-incubated with the antagonist, heated
[6] = HEK293T cells pre-incubated with the antagonist
[7] = temperature rise from 25° C. to 42° C.

Chain of YFP-hTRPV3-rLuc (Q8NET8 whole entry): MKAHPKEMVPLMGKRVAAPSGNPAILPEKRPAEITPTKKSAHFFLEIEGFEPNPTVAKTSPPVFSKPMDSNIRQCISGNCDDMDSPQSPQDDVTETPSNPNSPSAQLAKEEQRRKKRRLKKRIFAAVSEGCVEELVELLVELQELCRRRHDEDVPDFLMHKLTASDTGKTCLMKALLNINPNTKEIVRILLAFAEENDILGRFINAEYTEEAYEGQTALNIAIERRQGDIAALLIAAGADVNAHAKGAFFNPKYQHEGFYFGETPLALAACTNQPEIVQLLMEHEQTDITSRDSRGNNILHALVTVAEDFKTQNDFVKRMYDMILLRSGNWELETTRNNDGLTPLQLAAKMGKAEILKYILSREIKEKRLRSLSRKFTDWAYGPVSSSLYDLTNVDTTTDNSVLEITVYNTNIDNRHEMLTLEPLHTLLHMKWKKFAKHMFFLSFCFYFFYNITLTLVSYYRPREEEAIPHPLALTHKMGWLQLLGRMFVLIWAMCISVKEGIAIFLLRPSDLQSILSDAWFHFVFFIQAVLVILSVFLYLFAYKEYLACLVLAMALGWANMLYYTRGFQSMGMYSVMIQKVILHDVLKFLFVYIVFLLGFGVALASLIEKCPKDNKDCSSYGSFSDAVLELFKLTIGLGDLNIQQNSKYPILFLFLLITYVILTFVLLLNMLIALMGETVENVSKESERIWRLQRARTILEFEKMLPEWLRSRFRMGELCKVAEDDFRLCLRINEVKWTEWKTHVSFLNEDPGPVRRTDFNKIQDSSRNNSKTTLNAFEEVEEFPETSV

Compound: NCCOB(c1ccccc1)c1ccccc1 [2-APB, 2-Aminoethyl diphenylborinate]
evolution of the BRET signal after addition to the culture media (YFP-hTRPV3-rLuc): increase in the BRET value within seconds

Compound: N.N.N.N.N.N.N.N.N.N.N.N.N.N.[Cl-].[Cl-].[Cl-].[Cl-].[Cl-].[Cl-].[O-2].[O-2].[Ru+3].[Ru+3].[Ru+4] [Ruthenium Red]
BRET increase induced by the TRPV4 agonist GSK1016790A (TRPV4-Luc/YFP-CaM; Ruthenium Red 10 μM): No BRET increase

Compound: CC(C)C[C@H](NC(=O)c1cc2ccccc2s1)C(=O)N1CCN(C(=O)[C@H](CO)NS(=O)(=O)c2ccc(Cl)cc2Cl)CC1 [GSK1016790A]
EC50 (TRPV4-Luc/YFP-CaM; control condition (absence of Ruthenium Red), log value): 12.9 µM

Compound: CCCCCCCCC(=O)NCc1cc(OC)c(O)cc1I [6 iodo-CAPS]
temperature from which BRET signal decreased (YFP-hTRPV1-rLuc [2]; [5]): 48 °C
ratio of net BRET as initially measured at 29.5° C. (YFP-hTRPV1-rLuc [2]; [6]): 0.28

More lines, main results first:

time constant of the BRET increase after capsaicin [1]: 27 s
Compound: YFP-CaM (from UniProt P0DP23 1-149)

time constant (Tau) of BRET increase (TRPV1-Luc/YFP-CaM; after CAPS injection): 27 s
BRET over the basal signal following exposure (TRPV1-Luc/YFP-CaM; kinetic, HEK293T cells): robust increase of BRET
time constant (Tau) of BRET increase (YFP-hTRPV1-rLuc [2]; after CAPS injection): 2 s
BRET over the basal signal following exposure (YFP-hTRPV1-rLuc [2]; kinetic, HEK293T cells): robust increase of BRET
Compound: COc1cc(CNC(=O)CCCC/C=C/C(C)C)ccc1O [capsaicin]
intracellular calcium (Fura 2, I340/I380) [3]: No calcium increase
effect of temperature rise on capsaicin dose response (TRPV1-Luc/YFP-CaM; [7]): leftward shift of the power of capsaicin while the efficacy remained unchanged
intracellular calcium (Fura 2, I340/I380) (YFP-hTRPV1-rLuc [4]): rapid and important increase of intracellular calcium
intracellular calcium (Fura 2, I340/I380) (wild-type TRPV1): rapid and important increase of intracellular calcium
effect of temperature rise on capsaicin dose response (YFP-hTRPV1-rLuc [2]; [7]): leftward shift of the power of capsaicin while the efficacy remained unchanged

temperature at which BRET signal plateaued (YFP-hTRPV1-rLuc [2]; [5]): 52 °C
ratio of net BRET as initially measured at 29.5° C. (YFP-hTRPV1-rLuc [2]; [6]): 0.93
Compound: c1ccc(C2(c3ccccc3)CCCO2)cc1 [2,2-Diphenyltetrahydrofuran]

effect on the CAPS dose response curve (TRPV1-Luc/YFP-CaM): right shift
temperature where BRET signal started to decrease (YFP-hTRPV1-rLuc [2]; 1 μM CPZ, medium heated from 25° C. to 50° C.): 47 °C
effect on the CAPS dose response curve (YFP-hTRPV1-rLuc [2]): right shift
effect on the capsaicin dose-response curve (YFP-hTRPV1-rLuc [2]): right-shift
Compound: Oc1cc2c(cc1O)CN(C(=S)NCCc1ccc(Cl)cc1)CCC2 [Capsazepine]

effect on the CAPS dose response curve (TRPV1-Luc/YFP-CaM): right shift
temperature-induced BRET increase (TRPV1-Luc/YFP-CaM; cells preincubated with inhibitor, temperature increased from 25° C. to 50° C.): no significant BRET increase
effect on the CAPS dose response curve (YFP-hTRPV1-rLuc [2]): right shift
effect on the capsaicin dose-response curve (YFP-hTRPV1-rLuc [2]): right-shift
Compound: CC(=O)Nc1nc2c(Oc3cc(-c4ccc(C(F)(F)F)cc4)ncn3)cccc2s1 [AMG517]
